EC50 and Ratio EC50 data for 21 molecules are collected here from ChEMBL document CHEMBL2413005, “A novel necroptosis inhibitor-necrostatin-21 and its SAR study” (Bioorg Med Chem Lett, 2013).

Experiment [1] is described as follows: Inhibition of RIP1/JNK2 (unknown origin)-mediated necrosis.
Experiment [2] addresses Mitogen-activated protein kinase 10/Receptor-interacting serine/threonine-protein kinase 1 (Homo sapiens) (UniProt P53779+Q13546). Put plainly: Ratio of necrostatin-21 EC50 to compound EC50 for RIP1/JNK2 (unknown origin)-mediated necrosis. Format: protein assay.

Sequence of Mitogen-activated protein kinase 10/Receptor-interacting serine/threonine-protein kinase 1 (Homo sapiens) (P53779 whole entry, looked up): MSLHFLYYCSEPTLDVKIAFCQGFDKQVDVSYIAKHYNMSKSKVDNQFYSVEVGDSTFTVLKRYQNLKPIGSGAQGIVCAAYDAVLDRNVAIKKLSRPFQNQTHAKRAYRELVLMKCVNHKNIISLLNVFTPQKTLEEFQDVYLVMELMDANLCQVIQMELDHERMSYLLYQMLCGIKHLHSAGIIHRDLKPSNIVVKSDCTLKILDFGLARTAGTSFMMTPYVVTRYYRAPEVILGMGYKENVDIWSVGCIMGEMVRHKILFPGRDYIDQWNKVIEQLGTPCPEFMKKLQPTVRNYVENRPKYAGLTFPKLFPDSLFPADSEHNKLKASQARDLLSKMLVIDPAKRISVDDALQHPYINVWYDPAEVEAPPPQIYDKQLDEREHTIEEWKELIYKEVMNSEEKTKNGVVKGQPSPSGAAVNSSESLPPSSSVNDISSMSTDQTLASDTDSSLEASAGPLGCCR
Sequence of Mitogen-activated protein kinase 10/Receptor-interacting serine/threonine-protein kinase 1 (Homo sapiens) (Q13546 whole entry, looked up): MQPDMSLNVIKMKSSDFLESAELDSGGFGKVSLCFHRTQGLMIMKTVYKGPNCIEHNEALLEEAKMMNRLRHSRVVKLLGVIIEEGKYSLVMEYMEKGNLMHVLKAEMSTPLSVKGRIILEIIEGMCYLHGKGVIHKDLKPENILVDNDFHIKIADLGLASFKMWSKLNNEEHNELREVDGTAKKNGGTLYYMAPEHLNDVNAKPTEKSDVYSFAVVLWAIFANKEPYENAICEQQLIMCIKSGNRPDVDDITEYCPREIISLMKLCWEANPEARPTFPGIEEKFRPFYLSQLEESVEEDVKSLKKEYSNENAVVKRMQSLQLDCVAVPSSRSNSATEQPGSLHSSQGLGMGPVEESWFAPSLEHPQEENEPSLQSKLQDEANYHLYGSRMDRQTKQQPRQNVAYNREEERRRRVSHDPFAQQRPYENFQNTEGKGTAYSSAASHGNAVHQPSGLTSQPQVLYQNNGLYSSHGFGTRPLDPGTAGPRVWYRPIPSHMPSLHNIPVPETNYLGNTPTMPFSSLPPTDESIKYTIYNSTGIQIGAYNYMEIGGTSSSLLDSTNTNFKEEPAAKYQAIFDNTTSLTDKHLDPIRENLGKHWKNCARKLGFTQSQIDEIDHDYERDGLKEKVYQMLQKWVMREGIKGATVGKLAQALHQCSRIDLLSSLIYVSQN

Turning to `c1[nH]nc2c1CCc1c-2[nH]c2cc3c(cc12)OCO3`, the EC50 (as a rule, the concentration giving half of the maximal effect) in experiment [1] worked out at 150 nM. Same read-out and setting: under `Cc1cccc2c3c([nH]c12)-c1n[nH]cc1CC3` stands 760 nM; under `CCc1ccc2[nH]c3c(c2c1)CCc1c[nH]nc1-3`, 780 nM; under `COc1cc(OC)c2c3c([nH]c2c1)-c1n[nH]cc1CC3`, 110 nM. Still for that read-out and setting: under `COc1ccc2c3c([nH]c2c1)-c1n[nH]cc1CC3` stands 100 nM; under `COc1cc2[nH]c3c(c2cc1OC)CCc1c[nH]nc1-3`, 47 nM; under `COc1ccc2[nH]c3c(c2c1)CCc1c[nH]nc1-3`, 170 nM. The same measure, in the same setting: under `c1[nH]nc2c1CCc1c-2[nH]c2cc3c(cc12)OCCO3` stands 2640 nM. Take `Fc1ccc2[nH]c3c(c2c1)CCc1c[nH]nc1-3`: the EC50 in experiment [1] is 140 nM.

The molecule `O=[N+]([O-])c1cccc2c3c([nH]c12)-c1n[nH]cc1CC3` returned an EC50 in experiment [1] of 6320 nM. The same measure, in the same setting: under `Clc1cccc2[nH]c3c(c12)CCc1c[nH]nc1-3` stands 670 nM; under `FC(F)(F)c1ccc2c3c([nH]c2c1)-c1n[nH]cc1CC3`, 250 nM. Same read-out and setting: under `Fc1cccc2c3c([nH]c12)-c1n[nH]cc1CC3` stands 860 nM; under `Clc1ccc2c3c([nH]c2c1)-c1n[nH]cc1CC3`, 250 nM; under `c1ccc2c(c1)[nH]c1c2ccc2c[nH]nc21`, 3620 nM.

On to `COc1cc2[nH]c3c(c2cc1C#N)CCc1c[nH]nc1-3`, for which the Ratio EC50 in experiment [2] was more than 35. The half-maximal effective concentration (EC50) in experiment [1] is 14 nM. As for `COc1cccc2[nH]c3c(c12)CCc1c[nH]nc1-3`, the EC50 in experiment [1] amounted to 1450 nM. For `N#Cc1ccc2[nH]c3c(c2c1)CCc1c[nH]nc1-3`, the EC50 in experiment [1] came to 80 nM. With `c1ccc2c3c([nH]c2c1)-c1n[nH]cc1C3`, the EC50 in experiment [1] is 5790 nM. Same read-out and setting: the value for `CC1Cc2c([nH]c3ccccc23)-c2n[nH]cc21` (configuration not stated) was 810 nM.

As for `N#Cc1ccc2c3c([nH]c2c1)-c1n[nH]cc1CC3`, the EC50 in experiment [1] came to 110 nM.
